20 molecules from PubChem BioAssay (NCI) can be followed below.

Several values for one entry are separate records, joined by “and”; a condition that tells them apart may be missing. Equal values may be shown once.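 Exposure lasted 48 hours, with cells grown in 96-well plates and compounds tested at five concentrations. Abbreviation: GI50, concentration required for 50% inhibition of growth. Definition used: TGI = concentration required for complete inhibition of growth.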

Test systems include BT-549 breast; HCT-15 colon; HL-60(TB) leukemia; NCI-H23 lung; NCI-H460 lung; SN12C renal; SNB-19 CNS; UACC-257 melanoma; UACC-62 melanoma; UO-31 renal.
Holding throughout (experiment): growth of human tumour cells (NCI), 48 h

As for `C#CCOCC12C=CC(O1)C1C(=O)OCC12` (configuration not stated), the TGI in the assay on BT-549 breast, with HCT-15 colon, with HL-60(TB) leukemia, in the assay on NCI-H23 lung, in the assay with NCI-H460 lung and in the assay with SN12C renal was greater than 100 µM each time. Also, the TGI with SNB-19 CNS, in the assay with UACC-257 melanoma, with UACC-62 melanoma and in the assay on UO-31 renal was greater than 100 µM in each case.
Turning to `CCN(c1cccc(NC(=S)Nc2ccccc2N(CC)c2cc(-c3ccccc3)no2)c1)c1cc(-c2ccccc2)no1`, the TGI in the assay on BT-549 breast, with HCT-15 colon, with HL-60(TB) leukemia, in the assay with NCI-H23 lung, in the assay on NCI-H460 lung and with SN12C renal was greater than 100 µM each time. For the same molecule, the TGI with SNB-19 CNS, in the assay with UACC-257 melanoma, with UACC-62 melanoma and with UO-31 renal was greater than 100 µM in each case.
As for `OC1(c2ccccc2)CSC2=Nc3ccccc3C3CCN1N23` (configuration not stated), the TGI with BT-549 breast is 57.4 µM; in the assay on HCT-15 colon, 39.1 µM; with HL-60(TB) leukemia, 71.1 µM; in the assay with NCI-H23 lung, 79.2 µM; with NCI-H460 lung, greater than 100 µM; with SN12C renal it was 40.1 µM. Moreover, the TGI was found to be 37.4 µM in the assay on SNB-19 CNS, 86.8 µM with UACC-257 melanoma, 46.3 µM in the assay on UACC-62 melanoma and 28.7 µM in the assay on UO-31 renal.
With `CN(CCCNC(=O)c1nn(-c2ccc(Cl)cc2Cl)c2c1Cc1ccccc1-2)CCCNC(=O)c1nn(-c2ccc(Cl)cc2Cl)c2c1Cc1ccccc1-2`, the TGI worked out at 3.18 µM with BT-549 breast; 3.38 µM in the assay on HCT-15 colon; 3.14 µM in the assay on HL-60(TB) leukemia; 3.48 µM with NCI-H23 lung; 3.19 µM with NCI-H460 lung; 3.04 µM in the assay with SN12C renal. Moreover, the TGI turned out to be 3.24 µM with SNB-19 CNS, 3.35 µM with UACC-257 melanoma, 2.92 µM in the assay on UACC-62 melanoma and 3.59 µM in the assay with UO-31 renal.
As to `O=C(CC(=O)Nc1ccccc1)N/N=C/c1cc(N=Nc2ccc(Br)cc2)ccc1O`, the TGI was greater than 10 µM with BT-549 breast; greater than 10 µM with HCT-15 colon; 6 µM in the assay with HL-60(TB) leukemia; greater than 10 µM in the assay on NCI-H23 lung; greater than 10 µM in the assay with NCI-H460 lung; greater than 10 µM with SN12C renal. Moreover, the TGI with UACC-257 melanoma was 7.71 µM; in the assay with UACC-62 melanoma it was greater than 10 µM; in the assay with UO-31 renal it was 7.93 µM.
`Cc1cc(O)c(C(C)C)cc1C1(c2cc(C(C)C)c(O)cc2C)OC(=O)c2ccccc21`: the TGI in the assay on BT-549 breast worked out at 5.53 µM; with HCT-15 colon, 4.93 µM; in the assay on HL-60(TB) leukemia, 1.24 µM; in the assay with NCI-H23 lung it was 5.13 µM; with NCI-H460 lung, 3.99 µM; with SN12C renal, 4.35 µM. In addition, the TGI is greater than 35.1 µM in the assay on SNB-19 CNS, 3.6 µM in the assay with UACC-257 melanoma, 2.87 µM in the assay on UACC-62 melanoma and 7.04 µM with UO-31 renal.
Consider `Nc1ccc(CCN2CCN(CCCc3ccccc3)CC2)cc1`, for which the TGI in the assay on BT-549 breast, with HCT-15 colon, in the assay with HL-60(TB) leukemia, in the assay on NCI-H23 lung, with NCI-H460 lung and with SN12C renal was greater than 100 µM throughout. Besides, the TGI with SNB-19 CNS, in the assay with UACC-257 melanoma, with UACC-62 melanoma and in the assay with UO-31 renal was greater than 100 µM each time.
`C/C(=C/CC[C@]1(CO)CC[C@]2(CO)[C@H](CC[C@@H]3[C@@]4(C)CC[C@H](OC5OCC(O)C(O)C5OC5OC(CO)C(O)C(O)C5O)C(C)(C)[C@@H]4CC[C@]32C)[C@H]1O)CO` (some centres not stated): the TGI with BT-549 breast, in the assay with HL-60(TB) leukemia, in the assay with NCI-H23 lung, in the assay on NCI-H460 lung, in the assay on SN12C renal and in the assay with SNB-19 CNS was greater than 100 µM each time. Further, the TGI in the assay on UACC-257 melanoma, in the assay with UACC-62 melanoma and with UO-31 renal was greater than 100 µM each time.
As for `Brc1c(C#CCC2CCCCC2)ccc(C#CCC2CCCCC2)c1Br`, the TGI with BT-549 breast, in the assay with HCT-15 colon, in the assay with HL-60(TB) leukemia, with NCI-H460 lung, with SN12C renal and with SNB-19 CNS was greater than 100 µM each time. In addition, the TGI in the assay with UACC-257 melanoma and in the assay on UACC-62 melanoma was greater than 100 µM each time.
Regarding `C=CCOC(=O)C1C2OC3(C(C(=O)OC)=C2C(=O)OC)c2ccccc2CCC13` (configuration not stated), the TGI in the assay on BT-549 breast, with HCT-15 colon, in the assay with HL-60(TB) leukemia, in the assay with NCI-H23 lung, in the assay on NCI-H460 lung and in the assay with SN12C renal was greater than 10 µM each time. In addition, the TGI in the assay on SNB-19 CNS, in the assay with UACC-257 melanoma, in the assay on UACC-62 melanoma and with UO-31 renal was greater than 10 µM in each case.
Consider `c1ccc(CSCCc2ccncc2)cc1`, for which the TGI was greater than 100 µM in the assay on BT-549 breast; greater than 100 µM with HCT-15 colon; 89.6 µM in the assay with HL-60(TB) leukemia; greater than 100 µM with NCI-H23 lung; greater than 100 µM in the assay with NCI-H460 lung; greater than 100 µM in the assay on SN12C renal. For the same molecule, the TGI in the assay on SNB-19 CNS, in the assay with UACC-257 melanoma, in the assay with UACC-62 melanoma and in the assay with UO-31 renal was greater than 100 µM throughout.
Take `Nc1nc(Cl)c(N)c(NCC2(CO)CC(CCCc3ccccc3)C2)n1` (configuration not stated): the TGI in the assay with BT-549 breast was greater than 81.8 µM; with HCT-15 colon, greater than 100 µM; with HL-60(TB) leukemia it was 32.2 µM; in the assay with NCI-H23 lung, greater than 84.4 µM; in the assay with NCI-H460 lung it was greater than 100 µM; with SN12C renal, greater than 100 µM. In addition, the TGI in the assay with SNB-19 CNS, in the assay with UACC-257 melanoma, with UACC-62 melanoma and in the assay with UO-31 renal was greater than 100 µM in each case.
Turning to `CC(=O)OCC1OC(n2c(=O)[nH]c(=O)c3sccc32)C(Br)C1OC(C)=O` (configuration not stated), the TGI with BT-549 breast, in the assay with HCT-15 colon, in the assay on HL-60(TB) leukemia, in the assay on NCI-H23 lung, with NCI-H460 lung and in the assay with SN12C renal was greater than 100 µM each time. Also, the TGI with SNB-19 CNS, with UACC-257 melanoma and in the assay on UO-31 renal was greater than 100 µM throughout.
For the molecule `CCN(CC)Cc1sc2nc3ccccc3n2c1-c1ccc(OC)cc1`, the TGI in the assay with BT-549 breast, in the assay on HCT-15 colon, in the assay with HL-60(TB) leukemia, with NCI-H23 lung, in the assay with SNB-19 CNS and in the assay on UACC-257 melanoma was greater than 100 µM in each case. Besides, the TGI in the assay with UACC-62 melanoma and in the assay on UO-31 renal was greater than 100 µM throughout.
As to `CCC1(COC(NC(=O)c2ccccc2)(C(F)(F)F)C(F)(F)F)COC1`, the TGI with BT-549 breast, in the assay with HCT-15 colon, in the assay with HL-60(TB) leukemia, in the assay on NCI-H23 lung, with SN12C renal and in the assay with SNB-19 CNS was greater than 100 µM in each case. In addition, the TGI in the assay on UACC-257 melanoma and in the assay with UO-31 renal was greater than 100 µM each time.
Consider `CCNC1=C(NC(=O)CC)C(=O)c2ccccc2C1=O`, for which the TGI in the assay on BT-549 breast, with HCT-15 colon, in the assay on HL-60(TB) leukemia, in the assay with NCI-H23 lung, with NCI-H460 lung and in the assay with SN12C renal was greater than 100 µM each time. In addition, the TGI with SNB-19 CNS, in the assay on UACC-257 melanoma and in the assay on UACC-62 melanoma was greater than 100 µM throughout.
`Cc1ccc(/C(O)=C/C(=O)C(=O)NN=C(c2ccccc2)c2ccccc2)cc1`: the TGI in the assay on BT-549 breast, in the assay with HCT-15 colon, in the assay with HL-60(TB) leukemia, in the assay on NCI-H23 lung, in the assay on NCI-H460 lung and in the assay with SNB-19 CNS was greater than 100 µM in each case. Further, the TGI in the assay on UACC-257 melanoma, in the assay with UACC-62 melanoma and in the assay with UO-31 renal was greater than 100 µM each time.
For the molecule `O=[As](O)(O)c1ccc(N=Nc2ccc(O)cc2)cc1`, the TGI with BT-549 breast, in the assay with HCT-15 colon, in the assay on HL-60(TB) leukemia, in the assay on NCI-H23 lung, in the assay on NCI-H460 lung and in the assay on SN12C renal was greater than 100 µM each time. The TGI in the assay with SNB-19 CNS, in the assay on UACC-62 melanoma and in the assay on UO-31 renal was greater than 100 µM each time.
With `COC(=O)c1c(O)ccc2c1C1(Cc3ccccc3C1=O)C(O)O2` (configuration not stated), the TGI in the assay with BT-549 breast is 37 µM; in the assay on HCT-15 colon it was 54.2 µM; with HL-60(TB) leukemia, 40.4 µM; with NCI-H23 lung it was greater than 100 µM; in the assay with NCI-H460 lung, greater than 100 µM; in the assay on SN12C renal, 86.2 µM. Besides, the TGI is greater than 100 µM in the assay with SNB-19 CNS, greater than 100 µM in the assay with UACC-257 melanoma and 85 µM in the assay with UO-31 renal.
Turning to `C/C1=C\[C@@H](O)C(=O)/C=C/C=C\c2csc(n2)[C@@H](C)NC(=O)C[C@@]2(CC1)S(=O)SC(=O)[C@]2(C)O` (some centres not stated), the TGI is 0.0062 µM in the assay with BT-549 breast; 7.36 µM in the assay on HL-60(TB) leukemia; 0.0275 µM and 0.0102 µM with NCI-H23 lung; 0.27 µM and 0.327 µM with NCI-H460 lung; 0.0882 µM and 0.0192 µM with SN12C renal; 0.511 µM and 2.87 µM in the assay on SNB-19 CNS. The TGI in the assay on UACC-257 melanoma is 0.115 µM and 0.0222 µM; in the assay on UACC-62 melanoma, 0.0487 µM; in the assay with UO-31 renal it was 0.0889 µM. In the assay with SNB-19 CNS, the GI50 was 1.15 µM.
